{"source": "patent US20260102460A1", "about": "“NOVEL COMBINATIONS OF ANTIBIOTICS AND NON-ANTIBIOTIC DRUGS EFFECTIVE IN VIVO AGAINST GRAM-POSITIVE BACTERIA, IN PARTICULAR METHICILLIN-RESISTANT S. AUREUS (MRSA)” (EUROPEAN MOLECULAR BIOLOGY LABORATORY, priority 2022, published 2026)", "key": {"[1]": {"system": "MRSA clinical isolates", "assay": "8×8 broth microdilution checkerboard assays", "format": "cell-based, Staphylococcus aureus", "conditions": "MSSA and MRSA", "text": "(§1) Drug interaction networks in S. aureus, with drugs grouped according to their class (a) or targeted cellular process (b). Unique interactions across both strains tested are considered (i=331). Edge thickness represents the proportion of interactions for each node pair, considering all possible interactions given the number of drugs in each node. Nodes depict the drug class (a) or the targeted cellular process (b), and size is proportional to the number of drugs in the represented class/process. Only interacting drugs are considered (d=62). Synergies, antagonisms and nodes are colored according to FIG. 1. c. Novel and previously reported interactions detected in S. aureus. Interactions are considered known if reported in any S. aureus strain (Supplementary Table 4). d-e. Novel synergies are effective against MRSA clinical isolates in vitro (d) and in vivo in the G. mellonella infection model (e). […] The percentage of surviving larvae after treatment and in the untreated controls was monitored over time. […]\nCombinations were tested in the same experimental conditions as for the screen, but at higher concentration resolution: drugs were diluted in eight concentrations spanning linearly-space gradients to assemble 8×8 checkerboards for each combination tested. […] Data was analyzed with the same pipeline as for the screen (Methods)."}, "[2]": {"system": "MRSA", "assay": "G. mellonella infection model, drug combination therapy", "format": "in vivo, Galleria mellonella", "conditions": "G. mellonella infected with MRSA isolate resistant to tigecycline, gentamicin 2 μg/ml, ticagrelor 100 μg/ml (FIG. 5e)", "text": "as §1\nLarvae of the greater wax moth (Galleria mellonella) at their final instar larval stage were used for evaluation of selected drug combinations to assess their efficacy against MRSA in vivo. […] The survival of Galleria larvae was monitored at the indicated time points by two observers independently. Each strain-drug combination was evaluated in three independent experiments."}, "[3]": {"system": "S. aureus Newman", "assay": "Two-dimensional thermal proteome profiling (2D-TPP), whole cell and lysate", "format": "cell-based, Staphylococcus aureus", "conditions": "for thermal stability of ATP- and GTP-binding enzymes and transporters: ticagrelor 0.04-4 μg/ml"}, "[4]": {"system": "S. aureus DSM 20231", "assay": "Adjuvant (extended non-antibiotic) combination screen", "format": "cell-based, Staphylococcus aureus", "experimental": "MICs were tested in all strains for the main screen. Drugs were two-fold serially diluted in 11 concentrations, and 32 no-drug control wells were included in each plate. Experiments were conducted in 384-well plates (ref. 781271 by Greiner BioOne), with a total volume of 30 μl for S. aureus and B. subtilis and 55 μl for S. pneumoniae. Volumes were optimized for each strain to achieve good dynamic range for growth and minimize risk of cross-contamination between wells. Plates were inoculated with a starting optical density at 595 nm (OD595 nm) of 0.01 from an overnight culture. All liquid handling was performed using a Biomek FX liquid handler (Beckman Coulter). Plates were sealed with breathable membranes and incubated at 37° C. OD595 nm was measured every 30 minutes for 14 hours. The MIC was considered as the first concentration at which growth was inhibited. Experiments were conducted in biological duplicates. For the adjuvant screen, antibiotics were tested in S. aureus DSM 20231 at the same concentrations as for the main screen. Non-antibiotics concentrations were selected to fall within therapeutic ranges.\n62 drugs, hereafter designated as recipients, were arrayed in 384-well plates (ref. 781271 by Greiner BioOne) in three two-fold serial dilutions and two technical replicates. Concentrations were selected according to MICs, with the highest concentration corresponding to the MIC, and the intermediate and lowest concentration corresponding to ½ and ¼ MIC, respectively. Plates were kept frozen and defrosted upon each experimental run, when the same 62 drugs and in the same three concentrations were added as donor drugs (one drug at one concentration for each recipient plate). A few drugs were screened only as donors: the combinations co-amoxiclav and cotrimoxazole in B. subtilis and S. aureus DSM 20231; co-amoxiclav, clavulanic acid, pseudomonic acid and cefuroxime in S. aureus Newman. All donor drugs were tested in two biological replicates. Control wells were included in each plate (six no-drug wells, three plain medium wells and three wells containing only the donor drug). After the addition of donor drugs, plates were inoculated with cells. Handling, inoculation, growth conditions, plate incubation and OD595 nm measurements were performed as for the MIC determination.\nFor the adjuvant screen, 44 non-antibiotic drugs were tested against the same recipient drugs of the main screen for S. aureus DSM 20231.\nThe inventors selected 44 drugs to include pharmaceuticals that can be co-administered with antibiotics in S. aureus infections or non-antibiotics with previously reported antibacterial activity against S. aureus. […] Interactions were scored and benchmarked as for the main screen (Methods)."}, "[5]": {"system": "MRSA", "conditions": "ticagrelor 10 μg/mL combined with vancomycin 4 μg/mL; cited from earlier work"}}, "note": "Entries after “also recorded” stand apart in the source; their conditions may differ."}
{"smiles": "CCCSc1nc(N[C@@H]2C[C@H]2c2ccc(F)c(F)c2)c2nnn([C@@H]3C[C@H](OCCO)[C@@H](O)[C@H]3O)c2n1", "note": "[ticagrelor]", "values": [{"measurement": "interaction with gentamicin at growth inhibition level", "setting": "[1]; MRSA isolate resistant to tigecycline (FIG. 5c), ticagrelor combined with gentamicin", "result": "sensitized; also recorded: synergizes"}, {"measurement": "sensitization to cationic peptide nisin", "setting": "[1]; ticagrelor combined with nisin", "result": "sensitized"}, {"measurement": "interaction with gentamicin in vivo (survival of infected larvae)", "setting": "[2]", "result": "evident"}, {"measurement": "interaction with gentamicin in vivo (survival of infected larvae)", "setting": "[2]; listed as Ticagrelor", "result": "synergizes"}, {"measurement": "abundance of purine biosynthesis enzymes (PurC, PurD, PurE, PurF, PurK, PurL, PurM, PurN, PurQ)", "setting": "[3]; live cells", "result": "induction"}, {"measurement": "thermal stability of DltC and DltD (LTA D-alanylation)", "setting": "[3]; lysate", "result": "destabilized"}, {"measurement": "thermal stability of ClfA, ClfB, coagulase Coa and vWBP", "setting": "[3]; lysate, clinically-relevant ticagrelor concentration", "result": "destabilization"}, {"measurement": "thermal stability of ATP- and GTP-binding enzymes and transporters", "setting": "[3]; lysate", "result": "destabilization"}, {"measurement": "thermal stability of TagG (WTA translocase subunit)", "setting": "[3]; whole cell sample", "result": "destabilized"}, {"measurement": "thermal stability of ATP- and GTP-binding enzymes and transporters", "setting": "[3]; whole cell", "result": "destabilization"}, {"measurement": "abundance of ClfA, ClfB, coagulase Coa and vWBP", "setting": "[3]; whole-cell samples, clinically-relevant ticagrelor concentration", "result": "downregulation"}, {"measurement": "number of synergies", "setting": "[4]; S. aureus, non-antibiotic drugs with antibiotics", "result": 13}, {"measurement": "number of interactions", "setting": "[4]; among the 44 non-antibiotics tested, against panel of 62 drugs, S. aureus DSM 20231", "result": 27}, {"measurement": "initial MRSA inoculum killed", "setting": "[5]", "result": "approximately 50%"}]}
